Assay results published in PubChem BioAssay (NCI).
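48-hour exposure; five concentrations; linearly interpolated endpoints. GI50 is the concentration that inhibits growth by half. TGI: total growth inhibition.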

Experiments:
Experiment in all cases: DTP human tumour cell line panel, 48 h
HL-60(TB) leukemia = test system: HL-60(TB) leukemia
SK-MEL-2 melanoma = test system: SK-MEL-2 melanoma
OVCAR-4 ovarian = test system: OVCAR-4 ovarian
M14 melanoma = test system: M14 melanoma
NCI/ADR-RES ovarian = test system: NCI/ADR-RES ovarian
NCI-H23 lung = test system: NCI-H23 lung
A498 renal = test system: A498 renal
T-47D breast = test system: T-47D breast
HOP-62 NSCLC = test system: HOP-62 NSCLC
SF-268 CNS = test system: SF-268 CNS
U251 CNS = test system: U251 CNS
NCI-H460 lung = test system: NCI-H460 lung
K-562 leukemia = test system: K-562 leukemia
LOX IMVI melanoma = test system: LOX IMVI melanoma
SNB-75 CNS = test system: SNB-75 CNS
MOLT-4 leukemia = test system: MOLT-4 leukemia
MCF7 breast = test system: MCF7 breast
MDA-MB-435 = test system: MDA-MB-435
MDA-MB-231 breast = test system: MDA-MB-231 breast
BT-549 breast = test system: BT-549 breast
OVCAR-8 ovarian = test system: OVCAR-8 ovarian
MALME-3M melanoma = test system: MALME-3M melanoma
SK-MEL-5 melanoma = test system: SK-MEL-5 melanoma
786-0 renal = test system: 786-0 renal
HS 578T breast = test system: HS 578T breast
SK-MEL-28 melanoma = test system: SK-MEL-28 melanoma
UACC-62 melanoma = test system: UACC-62 melanoma
HCT-15 colon = test system: HCT-15 colon
OVCAR-3 ovarian = test system: OVCAR-3 ovarian
SN12C renal = test system: SN12C renal
HCC-2998 colon = test system: HCC-2998 colon
HOP-92 NSCLC = test system: HOP-92 NSCLC
HCT-116 colon = test system: HCT-116 colon
SF-539 CNS = test system: SF-539 CNS
RXF 393 renal = test system: RXF 393 renal

**Q.** For `COC(=O)c1c2c(c(C)[n+]([O-])c1C)C(=O)C(NCc1ccc(Br)cc1)=CC2=O`, which GI50 (HL-60(TB) leukemia) is on record?
**A.** The GI50 was 2310 nM.

**Q.** And the TGI (HL-60(TB) leukemia)?
**A.** The TGI was 5370 nM.

**Q.** What about the GI50 (SK-MEL-2 melanoma) of the same compound?
**A.** Its GI50 is 1880 nM.

**Q.** What about the TGI (SK-MEL-2 melanoma) of the same compound?
**A.** Its TGI is 6120 nM.

**Q.** What about the GI50 (OVCAR-4 ovarian) of the same compound?
**A.** Its GI50 is 704 nM.

**Q.** And the TGI (OVCAR-4 ovarian)?
**A.** The TGI was 2000 nM.

**Q.** And the GI50 (M14 melanoma)?
**A.** Its GI50 is 1140 nM.

**Q.** What about the TGI (M14 melanoma) of the same compound?
**A.** Its TGI is 2460 nM.

**Q.** And the GI50 (NCI/ADR-RES ovarian)?
**A.** The GI50 was 1970 nM.

**Q.** What about the TGI (NCI/ADR-RES ovarian) of the same compound?
**A.** Its TGI is 7030 nM.

**Q.** What about the GI50 (NCI-H23 lung) of the same compound?
**A.** The GI50 was 1570 nM.

**Q.** And the TGI (NCI-H23 lung)?
**A.** Its TGI is 4680 nM.

**Q.** What about the GI50 (A498 renal) of the same compound?
**A.** The GI50 was 1620 nM.

**Q.** And the TGI (A498 renal)?
**A.** The TGI was 4350 nM.

**Q.** And the GI50 (T-47D breast)?
**A.** The GI50 was 1520 nM.

**Q.** And the TGI (T-47D breast)?
**A.** The TGI was 4060 nM.

**Q.** And the GI50 (HOP-62 NSCLC)?
**A.** Its GI50 is 2380 nM.

**Q.** What about the TGI (HOP-62 NSCLC) of the same compound?
**A.** Its TGI is 7070 nM.

**Q.** And the GI50 (SF-268 CNS)?
**A.** Its GI50 is 2210 nM.

**Q.** And the TGI (SF-268 CNS)?
**A.** Its TGI is 7120 nM.

**Q.** And the GI50 (U251 CNS)?
**A.** Its GI50 is 2140 nM.

**Q.** And the TGI (U251 CNS)?
**A.** The TGI was 6010 nM.

**Q.** And the GI50 (NCI-H460 lung)?
**A.** The GI50 was 1860 nM.

**Q.** And the TGI (NCI-H460 lung)?
**A.** The TGI was > 100000 nM.

**Q.** And the GI50 (K-562 leukemia)?
**A.** The GI50 was 2380 nM.

**Q.** What about the TGI (K-562 leukemia) of the same compound?
**A.** Its TGI is > 100000 nM.

**Q.** What about the GI50 (LOX IMVI melanoma) of the same compound?
**A.** Its GI50 is 1670 nM.

**Q.** And the TGI (LOX IMVI melanoma)?
**A.** Its TGI is 6700 nM.

**Q.** And the GI50 (SNB-75 CNS)?
**A.** Its GI50 is 2200 nM.

**Q.** And the TGI (SNB-75 CNS)?
**A.** The TGI was 6790 nM.

**Q.** And the GI50 (MOLT-4 leukemia)?
**A.** Its GI50 is 1970 nM.

**Q.** And the TGI (MOLT-4 leukemia)?
**A.** Its TGI is 4740 nM.

**Q.** What about the GI50 (MCF7 breast) of the same compound?
**A.** Its GI50 is 1330 nM.

**Q.** And the TGI (MCF7 breast)?
**A.** Its TGI is 3210 nM.

**Q.** What about the GI50 (MDA-MB-435) of the same compound?
**A.** The GI50 was 1550 nM.

**Q.** And the TGI (MDA-MB-435)?
**A.** Its TGI is 2960 nM.

**Q.** And the GI50 (MDA-MB-231 breast)?
**A.** Its GI50 is 1410 nM.

**Q.** And the TGI (MDA-MB-231 breast)?
**A.** The TGI was 5510 nM.

**Q.** What about the GI50 (BT-549 breast) of the same compound?
**A.** Its GI50 is 1730 nM.

**Q.** And the TGI (BT-549 breast)?
**A.** Its TGI is 3520 nM.

**Q.** And the GI50 (OVCAR-8 ovarian)?
**A.** Its GI50 is 1830 nM.

**Q.** And the TGI (OVCAR-8 ovarian)?
**A.** The TGI was 7190 nM.

**Q.** And the GI50 (MALME-3M melanoma)?
**A.** The GI50 was 243 nM.

**Q.** What about the TGI (MALME-3M melanoma) of the same compound?
**A.** Its TGI is 800 nM.

**Q.** And the GI50 (SK-MEL-5 melanoma)?
**A.** The GI50 was 867 nM.

**Q.** And the TGI (SK-MEL-5 melanoma)?
**A.** Its TGI is 2110 nM.

**Q.** What about the GI50 (786-0 renal) of the same compound?
**A.** The GI50 was 3130 nM.

**Q.** What about the TGI (786-0 renal) of the same compound?
**A.** The TGI was 11200 nM.

**Q.** And the GI50 (HS 578T breast)?
**A.** Its GI50 is 2640 nM.

**Q.** And the TGI (HS 578T breast)?
**A.** The TGI was 9940 nM.

**Q.** And the GI50 (SK-MEL-28 melanoma)?
**A.** The GI50 was 4130 nM.

**Q.** And the TGI (SK-MEL-28 melanoma)?
**A.** Its TGI is > 100000 nM.

**Q.** What about the GI50 (UACC-62 melanoma) of the same compound?
**A.** Its GI50 is 1170 nM.

**Q.** And the TGI (UACC-62 melanoma)?
**A.** The TGI was 2690 nM.

**Q.** What about the GI50 (HCT-15 colon) of the same compound?
**A.** The GI50 was 1440 nM.

**Q.** And the TGI (HCT-15 colon)?
**A.** The TGI was 3910 nM.

**Q.** What about the GI50 (OVCAR-3 ovarian) of the same compound?
**A.** The GI50 was 301 nM.

**Q.** And the TGI (OVCAR-3 ovarian)?
**A.** Its TGI is 957 nM.

**Q.** And the GI50 (SN12C renal)?
**A.** The GI50 was 1660 nM.

**Q.** What about the TGI (SN12C renal) of the same compound?
**A.** The TGI was 4090 nM.

**Q.** What about the GI50 (HCC-2998 colon) of the same compound?
**A.** The GI50 was 1880 nM.

**Q.** And the TGI (HCC-2998 colon)?
**A.** Its TGI is 4830 nM.

**Q.** And the GI50 (HOP-92 NSCLC)?
**A.** The GI50 was 3070 nM.

**Q.** What about the TGI (HOP-92 NSCLC) of the same compound?
**A.** Its TGI is 7150 nM.

**Q.** What about the GI50 (HCT-116 colon) of the same compound?
**A.** Its GI50 is 1230 nM.

**Q.** And the TGI (HCT-116 colon)?
**A.** The TGI was 3770 nM.

**Q.** And the GI50 (SF-539 CNS)?
**A.** The GI50 was 2130 nM.

**Q.** What about the TGI (SF-539 CNS) of the same compound?
**A.** Its TGI is 4750 nM.

**Q.** And the GI50 (RXF 393 renal)?
**A.** Its GI50 is 1990 nM.

**Q.** And the TGI (RXF 393 renal)?
**A.** Its TGI is 5960 nM.
